We go through seven compounds from ChEMBL document CHEMBL1275456, “Metallo-beta-lactamase gene bla(IMP-15) in a class 1 integron, In95, from Pseudomonas aeruginosa clinical isolates from a hospital in Mexico” (2008).

Converted amounts (≈) assume the structure as drawn.

What all share (type): functional
Test [1] concerns Pseudomonas aeruginosa. In words: Antimicrobial activity against Pseudomonas aeruginosa clinical isolates assessed as resistant isolates by agar dilution method. A general note: In agar dilution the substance is mixed into plates at graded concentrations.
The subject of test [2] is Pseudomonas aeruginosa. The test can be described thus: Antimicrobial activity against Pseudomonas aeruginosa blood isolate 4667 containing PFGE clone A expressing beta-lactamase IMP-15 by broth microdilution method. Background: In broth dilution the organism is exposed to a series of concentrations in liquid medium.
Test [3] deals with Pseudomonas aeruginosa. In words: Antimicrobial activity against Pseudomonas aeruginosa blood isolate 4677 containing PFGE clone A expressing beta-lactamase IMP-15 by broth microdilution method.
Test [4] relates to Pseudomonas aeruginosa. In words: Antimicrobial activity against Pseudomonas aeruginosa secretion isolate 4682-1 containing PFGE clone A expressing beta-lactamase IMP-15 by broth microdilution method.
The test system of test [5] is Pseudomonas aeruginosa. The test can be described thus: Antimicrobial activity against Pseudomonas aeruginosa catheter isolate 4696 containing PFGE clone A expressing beta-lactamase IMP-15 by broth microdilution method.
Test [6] relates to Pseudomonas aeruginosa. In words: Antimicrobial activity against Pseudomonas aeruginosa urine isolate 4698 containing PFGE clone A expressing beta-lactamase IMP-15 by broth microdilution method.
Test [7] has as its system Pseudomonas aeruginosa. In words: Antimicrobial activity against Pseudomonas aeruginosa urine isolate 4706 containing PFGE clone A expressing beta-lactamase IMP-15 by broth microdilution method.
Test [8] concerns Pseudomonas aeruginosa. The test can be described thus: Antimicrobial activity against Pseudomonas aeruginosa secretion isolate 4658 containing PFGE clone A1 expressing beta-lactamase IMP-15 by broth microdilution method.
Test [9] relates to Pseudomonas aeruginosa. The test can be described thus: Antimicrobial activity against Pseudomonas aeruginosa pleural fluid isolate 4679 containing PFGE clone A1 expressing beta-lactamase IMP-15 by broth microdilution method.
Test [10] relates to Pseudomonas aeruginosa. The test can be described thus: Antimicrobial activity against Pseudomonas aeruginosa secretion isolate 4688 containing PFGE clone A1 expressing beta-lactamase IMP-15 by broth microdilution method.
Test [11] has as its system Pseudomonas aeruginosa. The test can be described thus: Antimicrobial activity against Pseudomonas aeruginosa secretion isolate 4703 containing PFGE clone A1 expressing beta-lactamase IMP-15 by broth microdilution method.
The subject of test [12] is Pseudomonas aeruginosa. In words: Antimicrobial activity against Pseudomonas aeruginosa blood isolate 4659 containing PFGE clone A2 expressing beta-lactamase IMP-15 by broth microdilution method.
In test [13] the test system is Pseudomonas aeruginosa. In words: Antimicrobial activity against Pseudomonas aeruginosa catheter isolate 4680 containing PFGE clone A2 expressing beta-lactamase IMP-15 by broth microdilution method.
For test [14], the system named is Pseudomonas aeruginosa. The test can be described thus: Antimicrobial activity against Pseudomonas aeruginosa urine isolate 4663 expressing beta-lactamase IMP-15 by broth microdilution method.
Test [15] has as its system Pseudomonas aeruginosa. The test can be described thus: Antimicrobial activity against Pseudomonas aeruginosa secretion isolate 4682-1 containing PFGE clone A expressing beta-lactamase IMP-15 by broth microdilution method in presence of beta-lactamase inhibitor Tazobactam.
Test [16] relates to Pseudomonas aeruginosa. The test can be described thus: Antimicrobial activity against Pseudomonas aeruginosa catheter isolate 4696 containing PFGE clone A expressing beta-lactamase IMP-15 by broth microdilution method in presence of beta-lactamase inhibitor Tazobactam.
The subject of test [17] is Pseudomonas aeruginosa. The test can be described thus: Antimicrobial activity against Pseudomonas aeruginosa urine isolate 4698 containing PFGE clone A expressing beta-lactamase IMP-15 by broth microdilution method in presence of beta-lactamase inhibitor Tazobactam. The following applies: isolate 4698, Urine.
Test [18] relates to Pseudomonas aeruginosa. In words: Antimicrobial activity against Pseudomonas aeruginosa urine isolate 4706 containing PFGE clone A expressing beta-lactamase IMP-15 by broth microdilution method in presence of beta-lactamase inhibitor Tazobactam. The settings on record: isolate 4706, Urine.
Test [19] relates to Pseudomonas aeruginosa. The test can be described thus: Antimicrobial activity against Pseudomonas aeruginosa secretion isolate 4658 containing PFGE clone A1 expressing beta-lactamase IMP-15 by broth microdilution method in presence of beta-lactamase inhibitor Tazobactam.
Test [20] concerns Pseudomonas aeruginosa. In words: Antimicrobial activity against Pseudomonas aeruginosa pleural fluid isolate 4679 containing PFGE clone A1 expressing beta-lactamase IMP-15 by broth microdilution method in presence of beta-lactamase inhibitor Tazobactam. The following applies: isolate 4679, Pleural fluid.
For test [21], the system named is Pseudomonas aeruginosa. The test can be described thus: Antimicrobial activity against Pseudomonas aeruginosa secretion isolate 4688 containing PFGE clone A1 expressing beta-lactamase IMP-15 by broth microdilution method in presence of beta-lactamase inhibitor Tazobactam.
The test system of test [22] is Pseudomonas aeruginosa. In words: Antimicrobial activity against Pseudomonas aeruginosa secretion isolate 4703 containing PFGE clone A1 expressing beta-lactamase IMP-15 by broth microdilution method in presence of beta-lactamase inhibitor Tazobactam.
Test [23] deals with Pseudomonas aeruginosa. In words: Antimicrobial activity against Pseudomonas aeruginosa blood isolate 4659 containing PFGE clone A2 expressing beta-lactamase IMP-15 by broth microdilution method in presence of beta-lactamase inhibitor Tazobactam.
The subject of test [24] is Pseudomonas aeruginosa. In words: Antimicrobial activity against Pseudomonas aeruginosa catheter isolate 4680 containing PFGE clone A2 expressing beta-lactamase IMP-15 by broth microdilution method in presence of beta-lactamase inhibitor Tazobactam.
In test [25] the test system is Pseudomonas aeruginosa. The test can be described thus: Antimicrobial activity against Pseudomonas aeruginosa urine isolate 4663 expressing beta-lactamase IMP-15 by broth microdilution method in presence of beta-lactamase inhibitor Tazobactam. The following applies: isolate 4663, Urine.
In test [26] the test system is Pseudomonas aeruginosa. In words: Antimicrobial activity against Pseudomonas aeruginosa clinical isolates assessed as resistant isolates by agar dilution method in presence of beta-lactamase inhibitor Tazobactam.
The subject of test [27] is Pseudomonas aeruginosa. The test can be described thus: Antimicrobial activity against Pseudomonas aeruginosa blood isolate 4667 containing PFGE clone A expressing beta-lactamase IMP-15 by broth microdilution method in presence of beta-lactamase inhibitor Tazobactam.
The test system of test [28] is Pseudomonas aeruginosa. In words: Antimicrobial activity against Pseudomonas aeruginosa blood isolate 4677 containing PFGE clone A expressing beta-lactamase IMP-15 by broth microdilution method in presence of beta-lactamase inhibitor Tazobactam.

With GENTAMICIN, the Activity in [1] was 54%. Besides, the MIC (usually the smallest concentration in the dilution series that meets the test's criterion for growth inhibition) in [2] was 128 µg/mL; in [3], greater than 128 µg/mL; in test [4], greater than 128 µg/mL; in [5] it was greater than 128 µg/mL; in test [6], greater than 128 µg/mL; in [7] it was greater than 128 µg/mL. In addition, the minimum inhibitory concentration (MIC) in [8] was 128 µg/mL; in test [9], 128 µg/mL; in test [10], greater than 128 µg/mL; in test [11], greater than 128 µg/mL; in [12], greater than 128 µg/mL; in test [13], 128 µg/mL. In test [14], this compound had a minimum inhibitory concentration (MIC) of 128 µg/mL.

`NCC[C@H](O)C(=O)N[C@@H]1C[C@H](N)[C@@H](O[C@H]2O[C@H](CN)[C@@H](O)[C@H](O)[C@H]2O)[C@H](O)[C@H]1O[C@H]1O[C@H](CO)[C@@H](O)[C@H](N)[C@H]1O` [AMIKACIN]: the Activity in [1] was 51%. For the same compound, the MIC in test [2] is greater than 128 µg/mL; in test [3], greater than 128 µg/mL; in [4], greater than 128 µg/mL; in test [5] it was greater than 128 µg/mL; in test [6] (isolate 4698, Urine) it was greater than 128 µg/mL; in [7] (isolate 4706, Urine), 64 µg/mL (≈ 109 µM). The MIC in test [8] was greater than 128 µg/mL; in test [9], greater than 128 µg/mL; in test [10], greater than 128 µg/mL; in test [11], 128 µg/mL (≈ 219 µM); in test [12] it was greater than 128 µg/mL; in [13], greater than 128 µg/mL. Moreover, the MIC in test [14] (isolate 4663, Urine) worked out at 4 µg/mL (≈ 6.83 µM).

On to `C[C@@H](O)[C@H]1C(=O)N2C(C(=O)O)=C(SCCNC=N)C[C@H]12` [IMIPENEM ANHYDROUS], for which the Activity in [1] came to 100%. Also, the minimal inhibitory concentration (MIC) was greater than 128 µg/mL in [2]; greater than 128 µg/mL in test [3]; 128 µg/mL (≈ 428 µM) in [4]; 128 µg/mL (≈ 428 µM) in test [5]; greater than 128 µg/mL in test [6] (isolate 4698, Urine); 32 µg/mL (≈ 107 µM) in [7] (isolate 4706, Urine). In addition, the MIC in test [8] is 128 µg/mL (≈ 428 µM); in [9], 128 µg/mL (≈ 428 µM); in [10], greater than 128 µg/mL; in test [11] it was greater than 128 µg/mL; in test [12] it was greater than 128 µg/mL; in test [13] it was 128 µg/mL (≈ 428 µM). In test [14] (isolate 4663, Urine), this compound registered an MIC of 32 µg/mL (≈ 107 µM).

Consider `C[C@@H](O)[C@H]1C(=O)N2C(C(=O)O)=C(S[C@@H]3CN[C@H](C(=O)N(C)C)C3)[C@H](C)[C@H]12` [MEROPENEM], for which the Activity in test [1] is given as 87%. The MIC in test [2] amounted to 128 µg/mL (≈ 334 µM); in test [3] it was 128 µg/mL (≈ 334 µM); in [4], 128 µg/mL (≈ 334 µM); in test [5] it was 128 µg/mL (≈ 334 µM); in test [6] (isolate 4698, Urine) it was 128 µg/mL (≈ 334 µM); in [7] (isolate 4706, Urine), 128 µg/mL (≈ 334 µM). Further, the MIC in [8], in test [9], in test [10], in [11], in [12] and in [13] was 128 µg/mL (≈ 334 µM) each time. Moreover, in [14] (isolate 4663, Urine), the MIC is greater than 128 µg/mL.

As to `CCN1CCN(C(=O)N[C@@H](C(=O)N[C@@H]2C(=O)N3[C@@H]2SC(C)(C)[C@@H]3C(=O)O)c2ccccc2)C(=O)C1=O` [PIPERACILLIN], the MIC in [15], in test [16], in test [17], in test [18], in test [19] and in test [20] was 64 µg/mL throughout. The minimum inhibitory concentration (MIC) in test [21] was 64 µg/mL; in test [22], 64 µg/mL; in test [23], 64 µg/mL; in [24] it was 64 µg/mL; in test [25], 64 µg/mL; in test [2], 64 µg/mL (≈ 124 µM). In addition, the MIC in [3] came out at 64 µg/mL (≈ 124 µM); in test [4], 64 µg/mL (≈ 124 µM); in [5], 64 µg/mL (≈ 124 µM); in test [6] (isolate 4698, Urine), 64 µg/mL (≈ 124 µM); in test [7] (isolate 4706, Urine), 64 µg/mL (≈ 124 µM); in test [8], 64 µg/mL (≈ 124 µM). In addition, the minimal inhibitory concentration (MIC) in test [9] turned out to be 64 µg/mL (≈ 124 µM); in test [10] it was 64 µg/mL (≈ 124 µM); in [11] it was 64 µg/mL (≈ 124 µM); in test [12] it was 64 µg/mL (≈ 124 µM); in [13], 64 µg/mL (≈ 124 µM); in [14] (isolate 4663, Urine), 64 µg/mL (≈ 124 µM). The MIC in [27] and in [28] was 64 µg/mL each time. The Activity in test [1] is 19%; in [26], 14%.

The compound `C[C@H]1[C@H](NC(=O)/C(=N\OC(C)(C)C(=O)O)c2csc(N)n2)C(=O)N1S(=O)(=O)O` [AZTREONAM] showed a minimal inhibitory concentration (MIC) in test [14] (isolate 4663, Urine) of 8 µg/mL (≈ 18.4 µM).

With `CC(C)(O/N=C(\C(=O)N[C@@H]1C(=O)N2C(C(=O)[O-])=C(C[n+]3ccccc3)CS[C@H]12)c1csc(N)n1)C(=O)O` [CEFTAZIDIME], the Activity in test [1] is recorded as 61%. The MIC is greater than 128 µg/mL in test [2]; greater than 128 µg/mL in test [3]; greater than 128 µg/mL in [4]; greater than 128 µg/mL in test [5]; greater than 128 µg/mL in test [6] (isolate 4698, Urine); greater than 128 µg/mL in test [7] (isolate 4706, Urine). For the same compound, the minimal inhibitory concentration (MIC) in [8], in test [9], in [10], in test [11], in [12] and in [13] was greater than 128 µg/mL in each case. Further, the minimum inhibitory concentration (MIC) in [14] (isolate 4663, Urine) was greater than 128 µg/mL.
